Data reported in US10350199B2, “3-(1h-pyrrolo[2,3-b]pyridin-2-yl)-1h-indazoles and therapeutic uses thereof” (Samumed, LLC, priority 2015, dated 2019).

Key:
Type in all cases: cell-based
[1] = test system: IL-6 (THP-1 human monocyte cell line); assay: IL-6 inhibition in LPS-stimulated THP-1 cells (HTRF); conditions: for EC50: IL-6 inhibition, LPS-stimulated THP-1 cells, HTRF; for inhibition at 10 µM: THP-1, read-out: percentage in parentheses beside EC50 >10 (IL-6 inhibition)
How it was run: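 THP-1 cells kept 24 h in 1% FBS medium, treated 2 h at 37 °C, then stimulated with 500 ng/mL LPS for another 22 h. IL-6 measured by HTRF as the 665/620 nm ratio; EC50 from a four-parameter fit normalized to DMSO controls.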

[2] = test system: primary human mesenchymal stem cells (hMSCs); assay: Induction of chondrogenesis in human mesenchymal stem cells (nodule area, Rhodamine B/Nile Red); conditions: hMSC chondrogenesis; for EC50: concentration required to induce 50% levels of chondrogenesis of TGF-β3 positive control, read-out: Conc (nM) of 50% TGF-β3 activity; for Emax: relative to TGF-β3 (10 ng/mL) positive control, read-out: Max. Activity as % TGF-β3 activity
Source text: Representative compounds were screened using primary human mesenchymal stem cells (hMSCs) to determine their ability to induce chondrogenesis (process by which cartilage is developed).
Primary human mesenchymal stem cells (hMSCs) were purchased from Lonza (Walkersville, Md.) and expanded in Mesenchymal Stem Cell Growth Media (Lonza). Cells between passage 3 and 6 were used for the experiments.
Area of nodules in each well was normalized to the average of 3 DMSO treated wells on the same plate using Excel (Microsoft Inc.). The normalized averages (fold change over DMSO) of 2 or 3 replicate wells for each compound concentration were calculated. Due to solubility limitations of some of the compounds, curve fitting was incomplete leading to inaccurate EC50 determinations.
Using TGF-β3 as a positive control, the concentration of representative compounds required to induce 50% levels of chondrogenesis is reported. In addition, the maximum activity of each compound and the respective dose that each compound reached maximum chondrogenesis activity is reported.

[3] = test system: Wnt activity (Sp5-Luc reporter, SW480 colon carcinoma cells); assay: Wnt activity screening assay, Sp5-Luc reporter gene in SW480 cells; conditions: Homo sapiens; for EC50: Sp5-Luc reporter, SW480 cells, overnight incubation; for inhibition at 10 µM: SW480, read-out: percent inhibition at 10 μM
How it was run: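 SW480 cells stably transduced with lentiviral Sp5 promoter (eight TCF/LEF sites)-firefly luciferase, plated at 4,000 cells/well in 1% FBS medium and incubated overnight at 37° C. Luminescence read after BrightGlo addition, normalized to DMSO-only cells; EC50 from four-parameter variable-slope nonlinear regression.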

SW480 colon cancer cells = assay: Cell viability assay (CellTiter-Blue), SW480 cells, four days; conditions: Homo sapiens; for EC50: 96 h, SW480 cell viability, four days, CellTiter-Blue; for inhibition at 10 µM: SW480, read-out: percent inhibition at 10 μM
How it was run: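 Fluorescence from resazurin reduced to resorufin by metabolically active cells was the read-out, taken after ~3 h with CellTiter-Blue.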

[4] = test system: primary human fibroblasts derived from IPF patients (LL29 cells) treated with TGF-β1; assay: Inhibition of the fibrotic process: αSMA staining in TGF-β1 treated LL29 fibroblasts; conditions: Fibroblast; for EC50: 96 h, LL29 cells, TGF-β1 20 ng/mL, 4 days, % αSMA positive cells; for inhibition at 10 µM: read-out: percent inhibition at 10 μM
How it was run: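 IPF-patient-derived LL29 lung fibroblasts in F12 with 1% FBS, stimulated with TGF-β1 alongside compound; TGF-β1 plus DMSO wells served as controls. After 4 days, nuclei stained with 1 μM SYTOX green for 30 min at room temperature, alongside αSMA staining.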

EC50 [1] | EC50 [2] | EC50 [3] | EC50 (SW480 colon cancer cells) | Structure (SMILES) | Emax [2] | EC50 [4] | inhibition at 10 µM [1] | inhibition at 10 µM [3] | inhibition at 10 µM (SW480 colon cancer cells) | inhibition at 10 µM [4]
6140 nM | 100 nM | 13 nM | 1030 nM | CCC(=O)Nc1cncc(-c2ccc3[nH]nc(-c4cc5c(-c6cccc(F)c6)ccnc5[nH]4)c3c2)c1 [Compound 1, N-(5-(3-(4-(3-Fluorophenyl)-1H-pyrrolo[2,3-b]pyridin-2-yl)-1H-indazol-5-yl)pyridin-3-yl)propionamide] | 167% | 141 nM |  |  |  | 
3970 nM | 30 nM | 1680 nM | 561 nM | CCNCc1cncc(-c2ccc3[nH]nc(-c4cc5c(-c6cccc(F)c6)ccnc5[nH]4)c3c2)c1 [Compound 6, N-((5-(3-(4-(3-Fluorophenyl)-1H-pyrrolo[2,3-b]pyridin-2-yl)-1H-indazol-5-yl)pyridin-3-yl)methyl)ethanamine] | 59% | 1200 nM |  |  |  | 
> 10000 nM |  | 1180 nM | 2920 nM | CN(C)Cc1cncc(-c2ccc3[nH]nc(-c4cc5c(-c6cccc(F)c6)ccnc5[nH]4)c3c2)c1 [Compound 13, 1-(5-(3-(4-(3-Fluorophenyl)-1H-pyrrolo[2,3-b]pyridin-2-yl)-1H-indazol-5-yl)pyridin-3-yl)-N,N-dimethylmethanamine] | 48% | 1190 nM | 55.3% |  |  | 
> 10000 nM |  | > 10000 nM | 1510 nM | Fc1ccc(-c2ccnc3[nH]c(-c4n[nH]c5ccc(-c6cncc(CN7CCCC7)c6)cc45)cc23)cc1 [Compound 42, 3-(4-(4-Fluorophenyl)-1H-pyrrolo[2,3-b]pyridin-2-yl)-5-(5-(pyrrolidin-1-ylmethyl)pyridin-3-yl)-1H-indazole] | 22% | 2930 nM | 40.2% | 14.8% |  | 
> 10000 nM | 2700 nM | > 10000 nM | > 10000 nM | Fc1ccc(-c2ccnc3[nH]c(-c4n[nH]c5ccc(-c6cncnc6)cc45)cc23)cc1 [Compound 55, 3-(4-(4-Fluorophenyl)-1H-pyrrolo[2,3-b]pyridin-2-yl)-5-(pyrimidin-5-yl)-1H-indazole] | 82% | > 10000 nM | 25.6% | 11.7% | 17.3% | 7.3%
> 10000 nM |  | 131 nM | 399 nM | Nc1cncc(-c2ccc3[nH]nc(-c4cc5c(-c6ccccc6F)ccnc5[nH]4)c3c2)c1 [Compound 59, 5-(3-(4-(2-Fluorophenyl)-1H-pyrrolo[2,3-b]pyridin-2-yl)-1H-indazol-5-yl) pyridin-3-amine] | 24% | 592 nM | 31.6% |  |  | 
> 10000 nM | 30 nM | > 10000 nM | > 10000 nM | Cc1ccncc1-c1ccc2[nH]nc(-c3cc4c(-c5ccccc5F)ccnc4[nH]3)c2c1 [Compound 61, 3-(4-(2-Fluorophenyl)-1H-pyrrolo[2,3-b]pyridin-2-yl)-5-(4-methylpyridin-3-yl)-1H-indazole] | 54% | 450 nM | 22.7% | 3.5% | 14.9% | 
550 nM | 900 nM | 184 nM | > 10000 nM | CC(C)CC(=O)Nc1cncc(-c2ccc3[nH]nc(-c4cc5c(-c6cccnc6)ccnc5[nH]4)c3c2)c1 [Compound 86, 3-Methyl-N-(5-(3-(4-(pyridin-3-yl)-1H-pyrrolo[2,3-b]pyridin-2-yl)-1H-indazol-5-yl)pyridin-3-yl)butanamide] | 104% | > 10000 nM |  |  | 44.6% | 25.9%
648 nM |  | > 10000 nM | > 10000 nM | c1cncc(-c2ccc3[nH]nc(-c4cc5c(-c6cccnc6)ccnc5[nH]4)c3c2)c1 [Compound 88, 5-(Pyridin-3-yl)-3-(4-(pyridin-3-yl)-1H-pyrrolo[2,3-b]pyridin-2-yl)-1H-indazole] | 17% | > 10000 nM |  | 48.8% | 11.2% | 0%
> 10000 nM |  | > 10000 nM | > 10000 nM | c1cc(-c2ccnc3[nH]c(-c4n[nH]c5ccc(-c6cn[nH]c6)cc45)cc23)ccn1 [Compound 571, 5-(1H-Pyrazol-4-yl)-3-(4-(pyridin-4-yl)-1H-pyrrolo[2,3-b]pyridin-2-yl)-1H-indazole] |  | > 10000 nM | 37% | 37% | 23.8% | 28.3%
> 10000 nM |  | > 10000 nM | 1150 nM | Cc1ncc(-c2ccc3[nH]nc(-c4cc5c(-c6ccncc6)ccnc5[nH]4)c3c2)n1C [Compound 573, 5-(1,2-Dimethyl-1H-imidazol-5-yl)-3-(4-(pyridin-4-yl)-1H-pyrrolo[2,3-b]pyridin-2-yl)-1H-indazole] |  | > 10000 nM | 26.4% | 8% |  | 113%
663 nM |  | 181 nM | 296 nM | c1cc(N2CCCCC2)c2cc(-c3n[nH]c4ccc(-c5cn[nH]c5)cc34)[nH]c2n1 [Compound 603, 3-(4-(Piperidin-1-yl)-1H-pyrrolo[2,3-b]pyridin-2-yl)-5-(1H-pyrazol-4-yl)-1H-indazole] |  | 304 nM |  |  |  | 
> 10000 nM |  | > 10000 nM | > 10000 nM | NC1CN(c2cncc(-c3ccc4[nH]nc(-c5cc6c(N7CCCCC7)ccnc6[nH]5)c4c3)n2)C1 [Compound 606, 1-(6-(3-(4-(Piperidin-1-yl)-1H-pyrrolo[2,3-b]pyridin-2-yl)-1H-indazol-5-yl)pyrazin-2-yl)azetidin-3-amine] |  | 3620 nM | 39.1% | 20.2% | 10.2% | 
> 10000 nM |  | > 10000 nM | 8580 nM | c1cc(N2CCCCC2)c2cc(-c3n[nH]c4ccc(-c5cncc(OC6CCCCC6)c5)cc34)[nH]c2n1 [Compound 607, 5-(5-(Cyclohexyloxy)pyridin-3-yl)-3-(4-(piperidin-1-yl)-1H-pyrrolo[2,3-b]pyridin-2-yl)-1H-indazole] |  | 7100 nM | 20% | 28.4% |  | 
> 10000 nM |  | 4880 nM | 4820 nM | CN1CCN(c2ccnc3[nH]c(-c4n[nH]c5ccc(-c6cncc(OCc7ccccc7)c6)cc45)cc23)CC1 [Compound 646, 5-(5-(Benzyloxy)pyridin-3-yl)-3-(4-(4-methylpiperazin-1-yl)-1H-pyrrolo[2,3-b]pyridin-2-yl)-1H-indazole] |  | 316 nM | 37.9% |  |  | 
> 10000 nM |  | > 10000 nM | > 10000 nM | COc1cncc(-c2ccc3[nH]nc(-c4cc5c(-c6ccsc6)ccnc5[nH]4)c3c2)c1 [Compound 676, 5-(5-Methoxypyridin-3-yl)-3-(4-(thiophen-3-yl)-1H-pyrrolo[2,3-b]pyridin-2-yl)-1H-indazole] |  | 7780 nM | 38.4% | 21% | 0% | 
> 10000 nM |  | 4150 nM | 3990 nM | c1cnc(-c2ccc3[nH]nc(-c4cc5c(-c6ccoc6)ccnc5[nH]4)c3c2)cn1 [Compound 696, 3-(4-(Furan-3-yl)-1H-pyrrolo[2,3-b]pyridin-2-yl)-5-(pyrazin-2-yl)-1H-indazole] |  | 2480 nM | 43.3% |  |  | 
> 10000 nM |  | > 10000 nM | > 10000 nM | c1csc(-c2ccnc3[nH]c(-c4n[nH]c5ccc(-c6cnccn6)cc45)cc23)c1 [Compound 712, 5-(Pyrazin-2-yl)-3-(4-(thiophen-2-yl)-1H-pyrrolo[2,3-b]pyridin-2-yl)-1H-indazole] |  | 1400 nM | 36.3% | 5.6% | 13.9% | 
